Measured values published in PMC7822874, “Chemoprotective antimalarials identified through quantitative high-throughput screening of Plasmodium blood and liver stage parasites” (Scientific Reports, 2021).
Where two headings read alike, the source gives them in different places.

Tests used:
[1] = system: Plasmodium falciparum Dd2 asexual blood stage parasites; test: microbe, parasite or virus in culture; design: species or system Plasmodium falciparum Dd2 in human erythrocytes; single determination (one 11-point concentration-response curve); settings: Plasmodium falciparum, DD2, Erythrocyte, 72 h; read-out: AC50
[2] = system: P. berghei-ANKA-GFP-LucCON liver stage parasites in HepG2-A16-CD81EGFP cells; test: P. berghei liver stage Pb-Luc assay, Method 1 (UCSD, 1536-well); format: cell-based, Plasmodium berghei; settings: for Max Resp (signal direction of the dose response) / AC50 / Log AC50 (M): Method 1; for Max Resp (signal direction of the dose response): Decrease = decreasing P. berghei viability with dose, Increase = increasing signal, Inactive = no dose response; for activity at 1 µM / activity at 3 µM: 48 h, average of 2 wells on a 1536 well plate; for activity at 1 µM: 1 uM (compounds provided at 10 mM); for activity at 3 µM: 3 uM (compounds provided at 10 mM)
[3] = in vitro; settings: human
[4] = Hill fit, 50% of maximum activity response, read-out: AC50
[5] = log10 of molar AC50 from Hill fit
[6] = Plasmodium berghei, Hill fit, 50% of maximum activity response, read-out: AC50
[7] = Plasmodium berghei, log10 of molar AC50 from Hill fit, read-out: Log AC50 (converted)
[8] = HepG2-A16-CD81EGFP cells, uninfected
[9] = Plasmodium berghei, column 11, read-out: Pb-Luc (P. berghei liver stage), % of control, lower concentration, first repeat
[10] = Plasmodium berghei, column 12, read-out: Pb-Luc (P. berghei liver stage), % of control, lower concentration, second repeat
[11] = Plasmodium berghei, column 8, read-out: Pb-Luc (P. berghei liver stage), % of control, higher concentration, first repeat
[12] = Plasmodium berghei, column 9, read-out: Pb-Luc (P. berghei liver stage), % of control, higher concentration, second repeat

For `Cc1ccc(Oc2ccc(NC(=O)c3ccco3)cc2)cc1` [MLS000111237-01], the AC50 [1] was 10600 nM, the “Max Resp (signal direction of the dose response)” value (“Max Resp” for short) [2] was “Decrease” and the AC50 [2, 4] was 158 nM. For the same compound, the “Log AC50 (M)” value [2, 5] was -6.800 M, the AC50 [2, 6] was 100 nM and the AC50 [2, 7] was 100 nM. The viability at 66 h [3, 8] was 95.1%.

For `CCOC(=O)c1cnc2c(C)cc(C)cc2c1O` [MLS000530578-01], the AC50 [1] was 4220 nM, the AC50 [2, 6] was 1410 nM and the AC50 [2, 7] was 1410 nM. It also gave a viability at 66 h [3] of 104%.

With `Fc1ccc(-c2csc3ncnc(Cl)c23)cc1` [MLS000590541-01] the AC50 [1] was 3350 nM, the activity at 1 µM [2, 9] was 115% and the activity at 1 µM [2, 10] was 105%. It also gave an activity at 3 µM [2, 11] of 120%, an activity at 3 µM [2, 12] of 132% and a viability at 48 h, 1 µM [3, 8] of 111%. For the same compound, the viability at 48 h, 3 µM [3, 8] was 101%.

`O=C(Nc1ccc(-c2csc(Nc3ccccc3)n2)cc1)c1cc([N+](=O)[O-])cc(C(F)(F)F)c1` [MLS000911606-01] showed an AC50 [1] of 2110 nM, an AC50 [2, 6] of 2820 nM and an AC50 [2, 7] of 2820 nM. It also gave a viability at 66 h [3, 8] of 104%.

For `OCCNc1nc(Nc2ccc(Br)cc2)nc2ccccc12` [MLS000625070-01], the AC50 [1] was 2660 nM, the “Max Resp” value [2] was “Decrease” and the AC50 [2, 4] was 2240 nM. The “Log AC50 (M)” value [2, 5] was -5.650 M, the AC50 [2, 6] was 1410 nM and the AC50 [2, 7] was 1410 nM. It also gave a viability at 66 h [3, 8] of 97%.

Work on `CCOC(=O)c1c(NC(=O)c2ccccc2)sc2c(O)c(CN(CC)CC)ccc12` [MLS000523141-01] yielded an AC50 [1] of 150 nM, an activity at 1 µM [2, 9] of 104% and an activity at 1 µM [2, 10] of 107%. The activity at 3 µM [2, 11] was 99%, the activity at 3 µM [2, 12] was 98% and the viability at 48 h, 1 µM [3, 8] was 91%. It also gave a viability at 48 h, 3 µM [3, 8] of 102%.

`CCOC(=O)CCCCC(=O)c1[nH]c(=O)[nH]c1Cn1ccnc1` [MLS000092014-01] gave an AC50 [1] of 2660 nM, an activity at 1 µM [2, 9] of 140% and an activity at 1 µM [2, 10] of 105%. For the same compound, the activity at 3 µM [2, 11] was 84%, the activity at 3 µM [2, 12] was 105% and the viability at 48 h, 1 µM [3, 8] was 98%. The viability at 48 h, 3 µM [3, 8] was 107%.

With `CN(CC(=O)Nc1cccc(F)c1)C(=O)c1ccc(-c2cccc(C(F)(F)F)c2)o1` [MLS001139679-01] the AC50 [1] was 668 nM, the activity at 1 µM [2, 9] was 156% and the activity at 1 µM [2, 10] was 127%. The activity at 3 µM [2, 11] was 81%, the activity at 3 µM [2, 12] was 96% and the viability at 48 h, 1 µM [3, 8] was 103%. It also gave a viability at 48 h, 3 µM [3, 8] of 99%.

`COc1cc2ccccc2cc1C(=O)N1CC(C)CC(C)C1` (centres unmarked) [MLS001129394-01] showed an AC50 [1] of 2370 nM, an activity at 1 µM [2, 9] of 125% and an activity at 1 µM [2, 10] of 114%. For the same compound, the activity at 3 µM [2, 11] was 67%, the activity at 3 µM [2, 12] was 101% and the viability at 48 h, 1 µM [3, 8] was 108%. It also gave a viability at 48 h, 3 µM [3, 8] of 98%.

With `CCCCCCCNC(=O)C1(CC2CC(c3ccc(Cl)cc3)=NO2)CCN(C(=O)c2cc(OCC)c(OCC)c(OCC)c2)CC1` (centres unmarked) [MLS001143958-01] the AC50 [1] was 3350 nM, the “Max Resp” value [2] was “Decrease” and the AC50 [2, 6] was 2820 nM. It also gave an AC50 [2, 7] of 2820 nM, a viability at 48 h [3, 8] of 103% and a viability at 48 h, 1 µM [3, 8] of 103%.

With `C=C(C)COc1ccc(-c2n[nH]cc2-c2ccc(OC)c(OC)c2)c(O)c1` [MLS000084580-01] the AC50 [1] was 6680 nM, the “Max Resp” value [2] was “Decrease” and the AC50 [2, 6] was 501 nM. The AC50 [2, 7] was 501 nM and the viability at 66 h [3, 8] was 36%.

With `Cc1ccc(C)c(NC(=O)CN(C)C(=O)c2ccc(-c3ccc(Cl)cc3)o2)c1` [MLS001077062-01] the AC50 [1] was 4730 nM, the activity at 1 µM [2, 9] was 137% and the activity at 1 µM [2, 10] was 128%. The activity at 3 µM [2, 11] was 154%, the activity at 3 µM [2, 12] was 145% and the viability at 48 h, 1 µM [3, 8] was 98%. The viability at 48 h, 3 µM [3, 8] was 102%.

For `CCn1cc(C(=O)N[C@@H](CCSC)C(=O)NC(C)(C)CO)c(=O)c2cc3c(cc21)OCO3` [MLS001201727-01], the AC50 [1] was 2990 nM, the “Max Resp” value [2] was “Inactive” and the viability at 48 h [3, 8] was 103%. It also gave a viability at 48 h, 1 µM [3, 8] of 103%.

`CCCSc1ccc([C@H]2N[C@@](Cc3ccccc3)(C(=O)OC)[C@H]3C(=O)N(CC)C(=O)[C@@H]23)cc1` [MLS001362807-01] showed an AC50 [1] of 5310 nM, an activity at 1 µM [2, 9] of 115% and an activity at 1 µM [2, 10] of 102%. The activity at 3 µM [2, 11] was 124%, the activity at 3 µM [2, 12] was 103% and the viability at 48 h, 1 µM [3, 8] was 109%. It also gave a viability at 48 h, 3 µM [3, 8] of 103%.

With `COc1cc(Cl)c(C)cc1NC(C)C(=O)Nc1cc(C(F)(F)F)ccc1N1CCOCC1` (centres unmarked) [MLS000375301-01] the AC50 [1] was 422 nM, the activity at 1 µM [2, 9] was 124% and the activity at 1 µM [2, 10] was 129%. It also gave an activity at 3 µM [2, 11] of 103%, an activity at 3 µM [2, 12] of 103% and a viability at 48 h, 1 µM [3, 8] of 109%. For the same compound, the viability at 48 h, 3 µM [3, 8] was 94%.

`Cc1ccc(C)c(NC(=O)CN(C)C(=O)c2ccc(-c3cccc(C(F)(F)F)c3)o2)c1` [MLS001161354-01] gave an AC50 [1] of 2110 nM, an activity at 1 µM [2, 9] of 171% and an activity at 1 µM [2, 10] of 168%. For the same compound, the activity at 3 µM [2, 11] was 154%, the activity at 3 µM [2, 12] was 126% and the viability at 48 h, 1 µM [3, 8] was 98%. The viability at 48 h, 3 µM [3, 8] was 102%.

Compound `NC1=NC[C@@H](Cc2ccc(O)cc2)N1CCCCC1CCCCC1` [MLS000888822-01] has an AC50 [1] of 4730 nM, an activity at 1 µM [2, 9] of 90% and an activity at 1 µM [2, 10] of 82%. The activity at 3 µM [2, 11] was 35%, the activity at 3 µM [2, 12] was 46% and the viability at 48 h, 1 µM [3, 8] was 116%. For the same compound, the viability at 48 h, 3 µM [3, 8] was 94%.

With `CCCc1ccc(OCc2nc(-c3ccc(NC(=O)c4cccs4)cc3)no2)cc1` [MLS000584893-01] the AC50 [1] was 15000 nM, the “Max Resp” value [2] was “Decrease” and the AC50 [2, 6] was 1410 nM. For the same compound, the AC50 [2, 7] was 1410 nM, the viability at 48 h [3, 8] was 97.2% and the viability at 48 h, 1 µM [3, 8] was 97.2%.

With `C=C(C)COc1ccc(-c2ncnc(C(F)(F)F)c2-c2ccc(OC)cc2)c(O)c1` [MLS001216205-01] the AC50 [1] was 2990 nM, the activity at 1 µM [2, 9] was 120% and the activity at 1 µM [2, 10] was 94%. For the same compound, the activity at 3 µM [2, 11] was 111%, the activity at 3 µM [2, 12] was 99% and the viability at 48 h, 1 µM [3, 8] was 89%. It also gave a viability at 48 h, 3 µM [3, 8] of 104%.

In the case of `Cc1ccc(/C=N/NC(=O)c2cc3ccccc3cc2O)o1` [MLS001219838-01], the AC50 [1] is reported as 5310 nM, the “Max Resp” value [2] is reported as “Decrease” and the AC50 [2, 6] is reported as 1410 nM. The AC50 [2, 7] was 1410 nM, the viability at 48 h [3, 8] was 97.9% and the viability at 48 h, 1 µM [3, 8] was 97.9%.

Work on `CC1CCCCN1S(=O)(=O)c1ccc(C(=O)Nc2ccccc2-c2nc3ccccc3[nH]2)cc1` (centres unmarked) [MLS000697052-01] yielded an AC50 [1] of 7500 nM, an AC50 [2, 6] of 355 nM and an AC50 [2, 7] of 355 nM. The viability at 66 h [3, 8] was 104%.

In the case of `COc1cc(O)c(C(CCN2CCCCC2)c2ccc3c(c2)OCO3)c(OC)c1` (centres unmarked) [MLS000879495-01], the AC50 [1] is reported as 1330 nM, the activity at 1 µM [2, 9] is reported as 100% and the activity at 1 µM [2, 10] is reported as 116%. For the same compound, the activity at 3 µM [2, 11] was 99%, the activity at 3 µM [2, 12] was 98% and the viability at 48 h, 1 µM [3, 8] was 113%. For the same compound, the viability at 48 h, 3 µM [3, 8] was 94%.

With `CCCc1cc(=O)oc2cc(C)cc(OCC(=O)Nc3ccccn3)c12` [MLS001160382-01] the AC50 [1] was 2110 nM, the activity at 1 µM [2, 9] was 212% and the activity at 1 µM [2, 10] was 140%. It also gave an activity at 3 µM [2, 11] of 42%, an activity at 3 µM [2, 12] of 160% and a viability at 48 h, 1 µM [3, 8] of 97%. The viability at 48 h, 3 µM [3, 8] was 111%.

For `CC1CCCN(Cc2c(O)ccc3c(=O)c(-c4ccc(Cl)cc4)coc23)C1` (centres unmarked) [MLS001196099-01], the AC50 [1] was 1880 nM, the activity at 1 µM [2, 9] was 102% and the activity at 1 µM [2, 10] was 123%. The activity at 3 µM [2, 11] was 105%, the activity at 3 µM [2, 12] was 96% and the viability at 48 h, 1 µM [3, 8] was 113%. The viability at 48 h, 3 µM [3, 8] was 99%.

`COCC(C)n1c(C)cc(C(=O)CSc2nnc(Nc3ccccc3F)s2)c1C` (centres unmarked) [MLS000566129-01] gave an AC50 [1] of 2990 nM, an activity at 1 µM [2, 9] of 126% and an activity at 1 µM [2, 10] of 124%. The activity at 3 µM [2, 11] was 118%, the activity at 3 µM [2, 12] was 120% and the viability at 48 h, 1 µM [3, 8] was 95%. For the same compound, the viability at 48 h, 3 µM [3, 8] was 101%.
